Data reported in patent US20100273189A1, “NON SEPARATION ASSAYS WITH SELECTIVE SIGNAL INHIBITORS” (BECKMAN COULTER, INC., priority 2009, published 2010).

Legend:
[1] = system: biotin-HRP; assay: Effect of ascorbic acid incubation time on chemiluminescence, Dynal M-280 biotin-HRP system; format: biochemical; settings: incubation time 80-330 seconds; ascorbic acid 0-200 μM; in words
Method: The effect of the length of time that a sample is exposed to ascorbic acid on the observed reduction of chemiluminescence intensity was investigated in a series of experiments employing the Dynal M-280 PMP particles and biotin-HRP system described in Example 11. Briefly, biotin-labeled PMPs, and various biotin-HRP/HRP solutions were allowed to bind and ascorbic acid solutions added. After a delay period ranging from 80-330 seconds, trigger solution A was injected and the chemiluminescence intensity integrated. The biotin-HRP/HRP solutions contained a total of 200 ng/mL HRP in the proportion 1:200, 8:192, and 32:168 biotin-HRP:HRP. Trials were run using various concentrations of ascorbic acid as the Sample in water at 0, 25, 50 100 and 200 μM.

[2] = system: myoglobin; assay: Myoglobin assay, AK-Ab1 particle + HRP-Ab2 conjugate; format: biochemical; settings: ascorbic acid employed
Method: (§1) This example describes a method of detecting myoglobin using a AK-Abl particle prepared as set forth in Example 3 and a HRP-Ab2 conjugate prepared as set forth in Example 4 where Ab2 represents an antibody to myoglobin. This method employed ascorbic acid to decrease background signal.
(§2) HRP-Ab2 conjugate suspensions were prepared at 1.0 μg/mL and contained either 0 or 1 mM ascorbic acid. Samples consisted of human serum samples with the indicated mounts of myoglobin added or no myoglobin as a control. The test procedure consisted of adding 20 μL of 1.0 μg/mL HRP-Ab2 conjugate and 30 μl of MES buffer containing 1 mg/mL BSA and 1 mg/mL MIgG, pH 5.9 to the reaction vessel. Next, 25 μL of patient serum sample was added, followed by 25 μL of 5.0 mg/mL AK-Abl conjugate suspension thereby obtaining 100 μL of total volume in the reaction vessel. After 15.2 minutes, 1004 of trigger solution A was added to the reaction vessel and the light intensity was recorded on the modified DxI instrument. Chemiluminescence intensity is expressed in Relative Light Units (RLU).

[3] = system: beta hCG; assay: Beta hCG assay, AK-Ab1 particle + HRP-Ab2 conjugate; format: biochemical, human; settings: ascorbic acid employed
Method: as §1, with “detecting beta-human chorionic gonadotrophin (beta hCG)” for “detecting myoglobin”, “using an” for “using a”, “to beta hCG.” for “to myoglobin.”
as §2, with “beta hCG” for “myoglobin”, “μL” for “μl”, “10” for “5.0”, “100 μL” for “1004”

In the case of `O=C1O[C@H]([C@@H](O)CO)C(O)=C1O` [Ascorbic Acid, Ascorbic acid], the “effect of ascorbic acid incubation time on observed chemiluminescence” value [1] is reported as “does not appear to cause a significant effect”, the RLU ([2]; S0, 11.4 ng/mL) is reported as 1,183 RLU and the RLU ([2]; S1, 56.3 ng/mL) is reported as 5,557 RLU. The S/S0 ([2]; S1, 56.3 ng/mL) was 5, the RLU ([2]; S2, 221 ng/mL) was 31,947 RLU and the S/S0 ([2]; S2, 221 ng/mL) was 27. The RLU ([2]; S3, 864 ng/mL) was 190,076 RLU, the S/S0 ([2]; S3, 864 ng/mL) was 161 and the RLU ([2]; S4, 2016 ng/mL) was 1,315,465 RLU. For the same compound, the S/S0 ([2]; S4, 2016 ng/mL) was 1,048, the RLU ([2]; S5, 3136 ng/mL) was 4,667,341 RLU and the S/S0 ([2]; S5, 3136 ng/mL) was 3,945. The RLU ([3]; S0, beta hCG 0 IU/mL) was 1,031 RLU, the RLU ([3]; S1, beta hCG 4.35 IU/mL) was 7,288 RLU and the S/S0 ([3]; S1, beta hCG 4.35 IU/mL) was 7. The RLU ([3]; S2, beta hCG 20.81 IU/mL) was 35,320 RLU, the S/S0 ([3]; S2, beta hCG 20.81 IU/mL) was 34 and the RLU ([3]; S3, beta hCG 127.285 IU/mL) was 298,108 RLU. The S/S0 ([3]; S3, beta hCG 127.285 IU/mL) was 289, the RLU ([3]; S4, beta hCG 413.455 IU/mL) was 1,293,751 RLU and the S/S0 ([3]; S4, beta hCG 413.455 IU/mL) was 1,255. The RLU ([3]; S5, beta hCG 775.805 IU/mL) was 2,225,779 RLU and the S/S0 ([3]; S5, beta hCG 775.805 IU/mL) was 2,159.
